According to paper PMC4990177, “ABCB1 Overexpression Is a Key Initiator of Resistance to Tyrosine Kinase Inhibitors in CML Cell Lines” (PLoS ONE, 2016):

What was measured:
K562 cells [1] = assay: % live cells during nilotinib dose escalation, K562 resistance intermediates; assay type: cell-based
K562-Dox cells [2] = assay: % live cells during nilotinib dose escalation, K562-Dox resistance intermediates; assay type: cell-based
LYN mRNA = LYN mRNA expression by RQ-PCR in nilotinib resistant K562 cells; assay type: cell-based; settings: K562 #6 NIL cells and later intermediates, duration of nilotinib escalation
K562 cells [3] = assay: Cell viability assay, Annexin V/7-AAD, 72 h, K562 cells
Procedure: (§1) Cells were washed and resuspended in fresh culture media before culture in 24-well plates (Thermo Fisher Scientific, Waltham, MA, USA) in the presence of TKI at a density of 2×10^5 cells/mL. Plates were seeded with 1 mL of cell suspension in triplicate, placed in sterilised containers and incubated for 72 h before cell viability determination with 7-aminoactinomycin D (7-AAD; Invitrogen Life Technologies, Carlsbad, CA, USA) and Phycoerythrin (PE)-conjugated Annexin V antibody (BD Biosciences, Franklin Lakes, NJ, USA). Flow cytometric analysis was conducted with an FC500 flow cytometer (Beckman Coulter, Miami, FL, USA) and FCS Express 4 software (De Novo Software, Los Angeles, CA, USA).
Error bars represent SEM.

K562-Dox cells [4] = assay: Cell viability assay, Annexin V/7-AAD, 72 h, K562-Dox cells
Procedure: as §1
Error bars represent SEM.

Cc1cn(-c2cc(NC(=O)c3ccc(C)c(Nc4nccc(-c5cccnc5)n4)c3)cc(C(F)(F)F)c2)cn1 [nilotinib]
% Live Cells (K562 cells [1]; K562 intermediate #1, cultured in 15 nM NIL, 10 days in culture): 95.0% | % Live Cells (K562 cells [1]; K562 intermediate #2, cultured in 25 nM NIL, 11 days in culture): 99.1% | % Live Cells (K562 cells [1]; K562 intermediate #3, cultured in 50 nM NIL, 10 days in culture): 96.7% | % Live Cells (K562 cells [1]; K562 intermediate #4, cultured in 75 nM NIL, 14 days in culture): 93.7% | % Live Cells (K562 cells [1]; K562 intermediate #5, cultured in 100 nM NIL, 12 days in culture): 94.6% | % Live Cells (K562 cells [1]; K562 intermediate #6, cultured in 125 nM NIL, 28 days in culture (prolonged exposure)): ~ 80% | % Live Cells (K562 cells [1]; K562 intermediate #6, cultured in 125 nM NIL, 28 days in culture (prolonged exposure), listed as NIL): 83.6% | % Live Cells (K562 cells [1]; K562 intermediate #7, cultured in 140 nM NIL, 17 days in culture): 87.4% | % Live Cells (K562 cells [1]; K562 intermediate #8, cultured in 300 nM NIL, 12 days in culture): 93.3% | % Live Cells (K562 cells [1]; K562 intermediate #9, cultured in 400 nM NIL, 14 days in culture): 90.8% | % Live Cells (K562 cells [1]; K562 intermediate #10, cultured in 2 μM NIL, continuous culture): 94.1% | % Live Cells (K562-Dox cells [2]; K562-Dox intermediate #1, cultured in 15 nM NIL, 11 days in culture): 99.6% | % Live Cells (K562-Dox cells [2]; K562-Dox intermediate #2, cultured in 30 nM NIL, 10 days in culture): 96.9% | % Live Cells (K562-Dox cells [2]; K562-Dox intermediate #3, cultured in 60 nM NIL, 11 days in culture): 98.5% | % Live Cells (K562-Dox cells [2]; K562-Dox intermediate #4, cultured in 100nM NIL, 12 days in culture): 91.3% | % Live Cells (K562-Dox cells [2]; K562-Dox intermediate #5, cultured in 125 nM NIL, 81 days in culture): 73.6% | % Live Cells (K562-Dox cells [2]; K562-Dox intermediate #6, cultured in 200 nM NIL, 16 days in culture): 76.6% | % Live Cells (K562-Dox cells [2]; K562-Dox intermediate #7, cultured in 1 μM NIL, 19 days in culture): 75.8% | % Live Cells (K562-Dox cells [2]; K562-Dox intermediate #8, cultured in 2 μM NIL, continuous culture): 90.7% | LYN mRNA increase compared with control cells (LYN mRNA): 15–18 fold | survival (% live cells) (K562 cells [3]; K562 #6 NIL cells, 1000 nM nilotinib): 87% | survival (% live cells) (K562 cells [3]; K562 #10 NIL cells, 1000 nM nilotinib): 85% | survival (% live cells) (K562 cells [3]; K562 control cells, 1000 nM nilotinib): 19% | survival (% live cells) (K562-Dox cells [4]; K562-Dox #5 NIL cells, 1000 nM nilotinib): 74% | survival (% live cells) (K562-Dox cells [4]; K562-Dox control cells, 1000 nM nilotinib): 8%

Cc1nc(Nc2ncc(C(=O)Nc3c(C)cccc3Cl)s2)cc(N2CCN(CCO)CC2)n1 [dasatinib]
survival (% live cells) (K562 cells [3]; K562 #6 NIL cells, 500 nM dasatinib): 74% | survival (% live cells) (K562 cells [3]; K562 #10 NIL cells, 500 nM dasatinib): 74% | survival (% live cells) (K562 cells [3]; K562 control cells, 500 nM dasatinib): 21% | survival (% live cells) (K562-Dox cells [4]; K562-Dox #5 NIL cells, 100 nM dasatinib): 60% | survival (% live cells) (K562-Dox cells [4]; K562-Dox control cells, 100 nM dasatinib): 5%

Cc1ccc(NC(=O)c2ccc(CN3CCN(C)CC3)cc2)cc1Nc1nccc(-c2cccnc2)n1 [imatinib]
survival (% live cells) (K562 cells [3]; K562 #6 NIL cells, 5 μM imatinib): 92% | survival (% live cells) (K562 cells [3]; K562 #10 NIL cells, 5 μM imatinib): 89% | survival (% live cells) (K562 cells [3]; K562 control cells, 5 μM imatinib): 29% | survival (% live cells) (K562-Dox cells [4]; K562-Dox #5 NIL cells, 5 μM imatinib): 79% | survival (% live cells) (K562-Dox cells [4]; K562-Dox control cells, 5 μM imatinib): 31%
